Data taken from US12083185B2, “Small polymeric carriers for delivery of agents” (University of Pittsburgh—Of the Commonwealth System of …, priority 2018, dated 2024).

What was measured:
PANC02 cells = assay: MTT cytotoxicity assay in PANC02 cells; format: cell-based, murine; conditions: 96 h
Procedure: MTT assay. The combinational effect of PTX and GEM as well as the cytotoxicity of blank and drug-loaded micelles were investigated by MTT assay using murine pancreatic carcinoma cell lines PANC02 and H7 cells. Cells were seeded into a 96-well plate at a density of 5000 cells/well and incubated in 100 μL of Dulbecco's Modified Eagle medium (DMEM) containing 10% FBS for 24 h. Cells were treated with various concentrations of free PTX, GEM or micelles solution for 96 h. Then, 20 μL of MTT solution (5 mg/mL) were added to each well and the cells were incubated for another 4 h. After removing the medium, 100 μL of DMSO were added into each well to dissolve MTT formazan crystals. The optical density was measured using a microplate reader and the cell viability was calculated with untreated cells as a control.

CDA = CDA expression in PANC02 cells by western blot; format: cell-based, murine; conditions: vs control group
Text: As described above, CDA is overexpressed in pancreatic cancer, which mediates the metabolism of cytidine analogue drugs, such as gemcitabine of GEM, leading to the resistance to treatment with these drugs. Thus, reducing the CDA expression provides a new therapeutic window for pancreatic cancer. We examined the CDA expression in PANC02 cells treated with various formulations by western blot.

Nc1ccn([C@@H]2O[C@H](CO)[C@@H](O)C2(F)F)c(=O)n1 [free GEM, gemcitabine]
Cytotoxicity (cell killing effect, in words) (PANC02 cells): concentration-dependent cell killing effect | CDA expression (CDA): not altered
